Data published in US20260103726A1, “CONTROL SYSTEM FOR INDUCING TRANSGENE EXPRESSION BY MEANS OF D-2-HG, AND CONSTRUCTION METHOD THEREFOR AND USES THEREOF” (priority 2023, published 2026).

Tests used:
HEK293FT cells = experiment: HGind-H composed of two plasmids transfected into HEK293FT cells, D2eGFP fluorescence intensity after D-2-HG addition; type: cell-based; details: ratio 0.4
Experimental: (3) The plasmid was transfected into HEK293FT cells with lipofectamine 3000; a transfection plasmid combination 1 was pCDNA3.1(+)-DhdR-KRAB and pCDNA3.1(+)-DhdO10-D2eGFP or a plasmid combination 2 was pCDNA3.1(+)-KRAB-DhdR and pCDNA3.1(+)-DhdO10-D2eGFP; 3*105/well of cells were seeded in a 12-well plate, pcDNA3.1(+)-DhdO10-D2eGFP was added at lug/well, and the ratio of the recombinant transcriptional repressor plasmid to PcDNA3.1(+)-DhdO10-D2eGFP was 0:1, 1:1, 3:1.
(4) On the next day, D-2-HG was added at concentrations of 0 mM, 1 mM, 5 mM, and 10 mM; 64 h after transfection, a fluorescence microscope was used to take pictures, the supernatant was aspirated, a fluorescence microplate reader measured fluorescence intensities, and results were shown in FIG. 2.
(1) pCDNA3.1(+)-DhdR-KRAB and pCDNA3.1(+)-DhdO10-D2eGFP were selected, and then transfected using liposomes as above; the ratio of the two plasmids was set to 0, 0.1, 0.3, 0.4, 0.5, 0.75, 1.
(2) On the next day, D-2-HG was added at concentrations of 0 mM and 5 mM; and 64 h after transfection, a fluorescence microscopy was used to take pictures, the supernatant was aspirated, and a fluorescence microplate reader measured a fluorescence intensity. […]
(2) On the next day, D-2-HG was added at concentrations of 0, 0.5, 1, 5, 10, and 20 mM; and a fluorescence microplate reader measured a fluorescence intensity.

HT1080-DHDO14 tumor = experiment: HGind-H control of suicide gene in animals, HT1080 vs HT1080-DHDO14 tumors with GCV; type: in vivo, Balb/c nude crlj; details: GCV 50 mg/kg per day i.p.
Experimental: (1) 18 Balb/c nude crlj which are male and 5 weeks old were purchased. HT1080 and HT-1080-DHDO14 cells were resuspended with PBS and injected at 1.5×10^6 cells/side*mouse (volume: 100 μl), where HT1080 was injected into the left backs of the mice and HT1080-DHDO14 was injected into the right backs of the mice.
(2) The mice were divided into two groups, the control group (n=8) was injected with normal saline, and the experimental group (n=10) was injected with ganciclovir (GCV).
(3) From the 5th to the 12th day of tumor model construction, each mouse in the control group was intraperitoneally injected with normal saline at 100 μl/day, and each mouse in the experimental group was intraperitoneally injected with GCV at 50 mg/kg per day. Starting from the 8th day, the long and short diameters of tumors of the mice were measured every day.
(4) The mice were killed on the 14th day and the tumors of the mice were weighed.

Compound	fluorescence intensity (D2eGFP expression) (HEK293FT cells; 0.5 mM D-2-HG vs 0 mM group, pCDNA3.1(+)-DhdR-KRAB and DhdO7-D2eGFP)	fluorescence intensity (D2eGFP expression), dose response (HEK293FT cells; D-2-HG 0, 0.5, 1, 5, 10, 20 mM)	size of HT1080-DHDO14 tumor vs HT1080 tumor on the left side (HT1080-DHDO14 tumor; day 5 to 12)	volume of the HT1080-DHDO14 tumor vs the other three groups (HT1080-DHDO14 tumor; later stage of measurement)	weight of the HT1080-DHDO14 tumor vs the other 3 groups (HT1080-DHDO14 tumor; mice killed on the 14th day)
O=C(O)CC[C@@H](O)C(=O)O [D-2-HG, D-2-hydroxyglutarate]	significant difference	as the concentration increases, the fluorescence intensity becomes larger and larger			
Nc1nc(O)c2ncn(COC(CO)CO)c2n1 [GCV, ganciclovir]			significantly smaller	significantly less	significantly less
